Measurements reported in US10633407B2, “14-membered ketolides and methods of their preparation and use” (President and Fellows of Harvard College, priority 2014, dated 2020).
Like-named read-outs stand apart in the source and are kept apart here.

Legend:
Assay in all cases: CLSI broth dilution MIC determination
Type in all cases: cell-based
E. coli ATCC 25922 = test system: E. coli ATCC 25922
Method in brief: (§1)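 MICs were measured by broth dilution following CLSI standard procedures. Azithromycin and solithromycin served as control macrolides in many cases. Macrolide-resistance genotypes in the panel may be constitutive or inducible.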

E. coli CTX-M-14 = test system: E. coli CTX-M-14
Method in brief: as §1

E. coli NDM-1 = test system: E. coli NDM-1
Method in brief: as §1

E. coli TEM-1 = test system: E. coli TEM-1
Method in brief: as §1

H. influenzae ATCC49247 = test system: H. influenzae ATCC49247
Method in brief: as §1

K. pneumoniae TEM-10 = test system: K. pneumoniae TEM-10
S. aureus ATCC 29213 = test system: S. aureus ATCC 29213
Method in brief: as §1

S. aureus MRSA: USA100 = test system: S. aureus MRSA: USA100
Method in brief: as §1

S. aureus MRSA: USA300 = test system: S. aureus MRSA: USA300
Method in brief: as §1

S. aureus USA600, GISA = test system: S. aureus USA600, GISA
Method in brief: as §1

S. aureus erm A genotype = test system: S. aureus erm A genotype
Method in brief: as §1

S. pneumoniae ATCC 49619 = conditions: S. pneumoniae ATCC 49619; Gram-positive
Method in brief: as §1

[1] = test system: S. pneumoniae erm B + mef A genotype
Method in brief: as §1

[2] = test system: S. pneumoniae erm B + tet(M,O) genotype; conditions: Streptococcus pneumoniae
Method in brief: as §1

[3] = test system: S. pneumoniae mef A genotype (second strain so labelled)
Method in brief: as §1

S. pyogenes ATCC 19615 = conditions: S. pyogenes ATCC 19615; Gram-positive
[4] = test system: S. pyogenes Macrolide-resistant; conditions: S. pyogenes Macrolide-resistant; Gram-positive
E. faecalis ATCC 29212 = test system: E. faecalis ATCC 29212
[5] = test system: E. faecalis Vancomycin-resistant; conditions: E. faecalis Vancomycin-resistant; Gram-positive
A. baumannii ATCC 19606 = test system: A. baumannii ATCC 19606
[6] = test system: A. baumannii imipenem-resistant
[7] = test system: A. baumannii chromosomal class C
A. baumannii IMP-4 = test system: A. baumannii IMP-4
K. pneumoniae ATCC 10031 = test system: K. pneumoniae ATCC 10031
K. pneumoniae KPC-2 = test system: K. pneumoniae KPC-2
K. pneumoniae SHV-12 = test system: K. pneumoniae SHV-12
P. aeruginosa ATCC 27853 = test system: P. aeruginosa ATCC 27853
[8] = test system: P. aeruginosa HPA101-1477
[9] = test system: H. influenzae Erythro >4, Azithro 1
Description: MIC data was collected for the novel macrolides that this platform has produced against over 21 unique strains of B. subtilis, E. coli, S. aureus, S. pneumoniae, and H. influenzae, including several multidrug-resistant strains, with a special focus on macrolide resistant mechanisms (vide supra). […] CLSI standard procedures for broth dilution MIC determination were used. […] These genotypes can be constitutive or inducible.

[10] = test system: A. baumannii MP-576 Clinical-MDR; conditions: Acinetobacter baumannii, read-out: MIC
[11] = Haemophilus influenzae, read-out: MIC
[12] = Acinetobacter baumannii, read-out: MIC

Measured: MIC

CC[C@H]1OC(=O)[C@@](C)(F)C(=O)[C@H](C)[C@@H](OC2OC(C)CC(N(C)C)C2O)[C@](C)(OC)C[C@@H](C)C(=O)[C@H](C)[C@H]2N(CCCCn3cc(-c4cccc(N)c4)nn3)C(=O)O[C@]12C (some centres unmarked) [Solithro, solithromycin, reference compound]
< 0.015 µg/mL: [3]; Streptococcus pneumoniae, second strain (MP-627 UNT-039), read-out: MIC
0.25 µg/mL: [1]; S. pneumoniae erm B + mef A genotype, Gram-positive | [1]; Streptococcus pneumoniae
16 µg/mL: E. coli ATCC 25922; E. coli ATCC 25922 (MP-4)
8 µg/mL: A. baumannii ATCC 19606; A. baumannii ATCC 19606, Gram-negative | A. baumannii ATCC 19606; Acinetobacter baumannii, ATCC19606, A. baumannii ATCC 19606 (MP-15), read-out: MIC | [7]; [12] | [7]; Gram-negative | K. pneumoniae ATCC 10031; K. pneumoniae ATCC 10031, Gram-negative | K. pneumoniae ATCC 10031; Klebsiella pneumoniae, ATCC10031, K. pneumoniae ATCC 10031 (MP-14), read-out: MIC
32 µg/mL: E. coli ATCC 25922; E. coli ATCC 25922, Gram-negative | E. coli ATCC 25922; Escherichia coli, ATCC25922, E. coli ATCC 25922 (MP-4), read-out: MIC | E. coli TEM-1; E. coli TEM-1, Gram-negative | E. coli TEM-1; Escherichia coli, TEM1 | [5]
0.0625 µg/mL: [4]
2 µg/mL: [9]; H. influenzae Erythro >4, Azithro 1, Gram-negative | [9]; [11]
1 µg/mL: S. aureus MRSA: USA300; S. aureus MRSA: USA300, Gram-positive | S. aureus MRSA: USA300; Staphylococcus aureus, S. aureus MRSA: USA300 (MP-549, msr(a)), read-out: MIC
4 µg/mL: H. influenzae ATCC49247; Gram-negative | H. influenzae ATCC49247; [11] | [6]; [12] | [6]; Gram-negative | K. pneumoniae ATCC 10031; K. pneumoniae ATCC 10031 (MP-14)
< 0.0312 µg/mL: S. pneumoniae ATCC 49619 | [2] | S. pyogenes ATCC 19615 | E. faecalis ATCC 29212; E. faecalis ATCC 29212, Gram-positive | E. faecalis ATCC 29212; Enterococcus faecalis, ATCC29212, E. faecalis ATCC 29212 (MP-24), read-out: MIC
0.125 µg/mL: S. aureus ATCC 29213; S. aureus ATCC 29213, Gram-positive | S. aureus ATCC 29213; Staphylococcus aureus, ATCC29213 | S. aureus MRSA: USA300; Staphylococcus aureus, S. aureus MRSA: USA300 (MP-549, msr(a)) | [3]; Gram-positive | [3]; Streptococcus pneumoniae, second strain (MP-627 UNT-039)
> 32 µg/mL: E. coli CTX-M-14; Escherichia coli, CTXM14, read-out: MIC | E. coli CTX-M-14; Gram-negative | E. coli NDM-1; Escherichia coli, NDM1, read-out: MIC | E. coli NDM-1; Gram-negative | K. pneumoniae TEM-10; Gram-negative | K. pneumoniae TEM-10; Klebsiella pneumoniae, TEM10, read-out: MIC | S. aureus MRSA: USA100; S. aureus MRSA: USA100, Gram-positive | S. aureus MRSA: USA100; Staphylococcus aureus, S. aureus MRSA: USA100 (MP-618 UNT-096), read-out: MIC | S. aureus USA600, GISA; S. aureus USA600, GISA, Gram-positive | S. aureus USA600, GISA; Staphylococcus aureus, S. aureus USA600, GISA (MP-619 UNT-120), read-out: MIC | S. aureus erm A genotype; S. aureus erm A genotype, Gram-positive | S. aureus erm A genotype; Staphylococcus aureus, S. aureus erm A genotype (MP-620 UNT-146), read-out: MIC | A. baumannii IMP-4; Acinetobacter baumannii, IMP4, read-out: MIC | A. baumannii IMP-4; Gram-negative | K. pneumoniae KPC-2; Gram-negative | K. pneumoniae KPC-2; Klebsiella pneumoniae, KPC2, read-out: MIC | K. pneumoniae SHV-12; Gram-negative | K. pneumoniae SHV-12; Klebsiella pneumoniae, SHV12, read-out: MIC | P. aeruginosa ATCC 27853; P. aeruginosa ATCC 27853, Gram-negative | P. aeruginosa ATCC 27853; Pseudomonas aeruginosa, ATCC27853, P. aeruginosa ATCC 27853 (MP-3), read-out: MIC | [8]; Gram-negative | [8]; Pseudomonas aeruginosa, HPA1011477, read-out: MIC | [10]
0.03 µg/mL: E. faecalis ATCC 29212; E. faecalis ATCC 29212 (MP-24)
